# Results from patent publication US20230144023A1, “USE OF BUTYLPHTHALIDE AND DERIVATIVE THEREOF” (CSPC NBP PHARMACEUTICAL CO., LTD, priority 2020, published 2023).
# Values joined by “and” are separate entries in the source; they are usually repeats but may differ in a detail not shown here. Identical values can stand only once. Counter-ions that a name gives are not always drawn. Like-named read-outs stand apart in the source and are kept apart here.
# Tests used:
# [1] = system: chemotherapy-induced peripheral neuropathy; settings: treatment of CIPN; guideline rating; cited from earlier work
# [2] = system: chemotherapy-induced peripheral neuropathy; settings: cited from earlier work
# MM.1S xenograft tumor = assay: Influence of NBP on in vivo anti-tumor efficacy of Bortezomib, MM.1S xenograft (Example 8); parameters: species or system Nu/Nu mice; settings: for T/C % / TGI % / RTV / TV: day 14; for T/C % / TGI % / RTV / TV / Tumor weight inhibition rate / Tumor weight: Bor 0.5 mg/kg, Pal 70 mg/kg, NBP 60 mg/kg, alone or combined; for RTV / TV / Tumor weight: mean, n=6; for Tumor weight inhibition rate / Tumor weight: end of experiment; for Tumor weight: in g (unit assumed); for body weights of the mice: mouse, in vivo
# Procedure: After in vitro resuscitation and passage of MM.1S cells to a sufficient amount, the cells were counted by a microscope, and diluted with a serum-free medium to adjust the cell count to about 1×10^8 cells/mL. The cell suspension was kept in an ice-water bath. The MM.1S cell suspension was extracted by a sterile syringe and inoculated into the subcutaneous tissue of the forelimb axilla of the Nu/Nu mice. […] Monotherapy group of Palbociclib: intragastric administration at 70 mg/kg, qd (the administration was commenced on day 0); […] The solvent group was given the solvent at the same frequency and with the same administration method as Bortezomib and NBP. The administration period was 16 days, and the administration volume was 10 mL/kg. […] Animals were weighed at set time once per day after the commencement of administration. After animals were grouped, the long diameter and the short diameter of the tumor were measured twice every week. […] V=1⁄2×A×B^2 […] (4) Tumor growth inhibition rate: Note: V: tumor volume; A: tumor length; B: tumor width; RTV: relative tumor volume; TVnd: tumor volume on day n; TV0d: tumor volume on day 0; […]: mean relative tumor volume on day n; TVXn: mean tumor volume of the therapy group on day n; TVX0: mean tumor volume of the therapy group on day 0; TVMn: mean tumor volume of the solvent group on day n; and TVM0: mean tumor volume of the solvent group on day 0 At the end of the experiment, after the animals were euthanized by CO2 asphyxiation, the tumors were excised and weighed.
# [3] = system: MM.1S, Jeko-1, HT29, A549, DU145; assay: In vitro proliferation of 5 cell strains, summary statements (Example 7); assay type: cell-based, Human; settings: Homo sapiens; range over MM.1S, Jeko-1, HT29, A549, DU145; combined therapy with 30 μM NBP
# Procedure: Different drug concentration gradients were set for each group.
# Monotherapy group of NBP: NBP was 2× serially diluted from an initial concentration of 480 μM to 8 concentrations: 480, 240, 120, 60, 30, 15, 7.5, and 3.75 μM, respectively.
# The action time of the drug was 72 h.
# 3 replicate wells were set for each concentration of each drug, and blank wells (only culture medium was present, and no tumor cells were inoculated) and normal wells (a culture medium inoculated with tumor cells, drug concentration was 0) were set.
# [4] = cited from earlier work
# [5] = PK of Bortezomib and butylphthalide in plasma of MM.1S tumor-bearing mice (Example 8); assay type: in vivo, Nu/Nu mice
# Procedure: Monotherapy group of Bortezomib: administered by intraperitoneal injection at 0.5 mg/kg, biw (on days 0, 3, 7, 10, and 15);
# Monotherapy group of NBP: administered by transoral gavage at 60 mg/kg, bid (the administration was commenced on day 0), and the second dose of NBP was administered with an interval from the first dose of ≥4 h;
# Monotherapy group of Palbociclib: intragastric administration at 70 mg/kg, qd (the administration was commenced on day 0);
# Combined therapy group of NBP/Bortezomib: the administration frequency and dose were the same as the frequency and dose of the monotherapy group of NBP and the monotherapy group of Bortezomib, respectively.
# Combined therapy group of Bortezomib/Palbociclib: the administration frequency and dose were the same as the frequency and dose of the monotherapy group of Bortezomib and the monotherapy group of Palbociclib, respectively.
# Combined therapy group of NBP/Bortezomib/Palbociclib: the administration frequency and dose were the same as the frequency and dose of the monotherapy group of NBP, the monotherapy group of Bortezomib, and the monotherapy group of Palbociclib, respectively.
# Before administration of the last dose of Bortezomib (0 h), and 5 min, 15 min, 30 min, 1 h, 2 h, 4 h, 8 h, 24 h after the administration, blood was sampled (as detailed in Table 8) (except that blood was sampled from the mice in the solvent group only at 0 h), anticoagulated with heparin, and centrifuged to separate plasma, which was stored at −80° C. for later use. Bortezomib and butyphthalide in the plasma were determined by protein precipitation-LC/MS/MS.
# [6] = system: paclitaxel (albumin bound) chemotherapy-induced peripheral neuropathy; assay: Paclitaxel (albumin bound) chemotherapy-induced peripheral neuropathy in rats, butylphthalide intragastric administration (Example 2); assay type: in vivo, SD (Sprague Dawley) rats; settings: duloxetine hydrochloride 15 mg/kg qd, compared with the model group
# Procedure: The model group was given vegetable oil at the same frequency and with the same administration method as NBP. The normal group was given normal saline at the same frequency and with the same administration method as ab-PTX, and was given vegetable oil at the same frequency and with the same administration method as NBP. […] (2) Thermal pain threshold: measurements were performed on days −1, 7, and 14. Method: IITC Life Science Electronic Von Frey Anesthesio meter was used and the intensity of the light source was adjusted to obtain a baseline of thermal pain threshold of about 3-6 s. […] The rats were placed in a plastic compartment on a glass plate, to make the planta centers of the rats be exposed to the light source. […] (3) Mechanical stimulus pain threshold: measurements were performed on days 0, 6, and 13. Method: the rats were placed in a plastic compartment on a wire mesh, left to stand still for 15 min, stimulated using a stimulation probe with a diameter of 0.4 mm of the IITC Life Science Electronic Von Frey Anesthesio meter at the planta centers of the rats by gradually increasing the force until reflexive withdrawal of the rats.
# [7] = prevention of CIPN, guideline rating
# [8] = Bor 0.5 mg/kg i.p., Pal 70 mg/kg, NBP 60 mg/kg, mean ± SD, n=6
# [9] = prevention of CIPN, patients receiving cisplatin/oxaliplatin-based chemotherapy
# [10] = prevention of CIPN, patients receiving paclitaxel/carboplatin chemotherapy
# [11] = prevention of CIPN, patients receiving oxaliplatin treatment
compound,measurement,setting,value
CC(=O)O[C@H](CC(=O)[O-])C[N+](C)(C)C [Acetyl L-carnitine],Efficacy,[1],Low
same,Safety,[1],Moderate
same,Efficacy,[2]; [7],Low
same,Safety,[2]; [7],Low
CC(=O)N[C@@H](CS)C(=O)O [Acetylcysteine],Efficacy,[2]; [7],Low
same,Safety,[2]; [7],Low
CC1=C(/C=C/C(C)=C/C=C/C(C)=C/C(=O)O)C(C)(C)CCC1 [All-trans retinoic acid],Efficacy,[2]; [7],Low
same,Safety,[2]; [7],Moderate
NCCCNCCSP(=O)(O)O [Amifostine],Efficacy,[2]; [7],Low
same,Safety,[2]; [7],Moderate
CN(C)CCC=C1c2ccccc2CCc2ccccc21 [Amitriptyline],Efficacy,[2]; [7],No evidence
same,Safety,[2]; [7],Moderate
CC(C)C[C@H](NC(=O)[C@H](Cc1ccccc1)NC(=O)c1cnccn1)B(O)O [Bortezomib],T/C %,MM.1S xenograft tumor,98.0%
same,TGI %,MM.1S xenograft tumor,8.7%
same,RTV,MM.1S xenograft tumor,9.6
same,TV,MM.1S xenograft tumor,1124.8 mm^3
same,Tumor weight inhibition rate,MM.1S xenograft tumor,22.2%
same,Tumor weight,MM.1S xenograft tumor,1.282
same,body weights of the mice,MM.1S xenograft tumor,no significant difference
same,IC50,HT29,4.43 nM and 4.97 nM and 5.65 nM and 5.02 nM
same,IC50,[3],1 to 20 nM
same,IC50,MM.1S,2.55 nM and 2.94 nM and 2.99 nM and 2.83 nM
same,patients still having clinically significant neuropathy,[4]; 2-3 months after treatment,60-85%
same,additional patients with moderate to severe neurotoxicity,"[4]; human, in vivo",~30%
same,patients with severe painful sensory neuropathy,"[4]; human, in vivo",50%
same,CI of Bortezomib,[5]; [8],30.2 ± 9.33 mL/min/kg
same,Vd of Bortezomib,[5]; [8],14.2 ± 3.2 L/kg
same,influence of Bortezomib on the pharmacokinetic behavior of NBP in mice,[5]; Bortezomib 0.5 mg/kg,substantially did not affect
same,AUC(0-t),"[5]; Nu/Nu, mouse, plasma, ip, Bor 0.5 mg/kg i.p., Pal 70 mg/kg, NBP 60 mg/kg, mean ± SD, n=6, read-out: AUC0-t of Bortezomib in plasma",290 ± 104 ng·h/mL
same,MRT last,"[5]; Nu/Nu, mouse, plasma, ip, Bor 0.5 mg/kg i.p., Pal 70 mg/kg, NBP 60 mg/kg, mean ± SD, n=6, read-out: MRT0-t of Bortezomib",5.9 ± 0.8 h
same,half-life,"[5]; Nu/Nu, mouse, plasma, ip, Bor 0.5 mg/kg i.p., Pal 70 mg/kg, NBP 60 mg/kg, mean ± SD, n=6, read-out: t1/2 of Bortezomib in plasma (converted)",56.6 ± 1.16 h
same,Cmax,"[5]; Nu/Nu, mouse, plasma, ip, after last Bortezomib dose, Bor 0.5 mg/kg i.p., Pal 70 mg/kg, NBP 60 mg/kg, mean ± SD, n=6, read-out: Cmax of Bortezomib in plasma",113 ± 8 ng/mL
same,IC50,DU145,12.8 nM and 11.9 nM and 17.1 nM and 13.9 nM
same,IC50,A549,11.8 nM and 13.3 nM and 10.6 nM and 11.9 nM
same,IC50,Jeko-1,4.83 nM and 3.51 nM and 4.47 nM and 4.27 nM
NC(=O)N1c2ccccc2C=Cc2ccccc21 [Carbamazepine],Efficacy,[2]; [7],Low
same,Safety,[2]; [7],Low
CCN(CC)C(=S)S [Diethyldithio-carbamate],Safety,[2]; [7],High
CNCC[C@H](Oc1cccc2ccccc12)c1cccs1 [Duloxetine],Efficacy,[1],Moderate
same,Safety,[1],Low
NCC1(CC(=O)O)CCCCC1 [Gabapentin],Efficacy,[1],Low
same,Safety,[1],Low
N[C@@H](CCC(=O)O)C(=O)O [Glutamate],Efficacy,[2]; [7],Low
same,Safety,[2]; [7],Low
N[C@@H](CCC(=O)N[C@@H](CS)C(=O)NCC(=O)O)C(=O)O [Glutathione],Efficacy,[2]; [9],Low
same,Safety,[2]; [9],Low
same,Efficacy,[2]; [10],Low
same,Safety,[2]; [10],Low
Nc1nnc(-c2cccc(Cl)c2Cl)c(N)n1 [Lamotrigine],Efficacy,[1],No evidence
same,Safety,[1],Low
COCCOC(=O)C1=C(C)NC(C)=C(C(=O)OC(C)C)C1c1cccc([N+](=O)[O-])c1 (centres unmarked) [Nimodipine],Safety,[2]; [7],Moderate
CC(=O)c1c(C)c2cnc(Nc3ccc(N4CCNCC4)cn3)nc2n(C2CCCC2)c1=O [Palbociclib],T/C %,MM.1S xenograft tumor,44.4%
same,TGI %,MM.1S xenograft tumor,56.3%
same,RTV,MM.1S xenograft tumor,4.3
same,TV,MM.1S xenograft tumor,605.4 mm^3
same,Tumor weight inhibition rate,MM.1S xenograft tumor,66.6%
same,Tumor weight,MM.1S xenograft tumor,0.550
same,body weights of the mice,MM.1S xenograft tumor,no significant difference
COc1ccc(C(CN(C)C)C2(O)CCCCC2)cc1 (centres unmarked) [Venlafaxine],Efficacy,[2]; [7],Low
same,Safety,[2]; [7],Low
"CNCC[C@H](Oc1cccc2ccccc12)c1cccs1 [duloxetine hydrochloride, Duloxetine hydrochloride]",body weights of the rats,"[6]; NBP 3, 10 and 30 mg/kg bid, intragastric, throughout administration",significantly increase
same,mechanical pain threshold,"[6]; day 13, NBP 10 and 30 mg/kg bid, P<0.05",significantly decreased
same,thermal pain threshold,"[6]; day 14, NBP 3, 10 and 30 mg/kg bid, P<0.05",significantly decreased
CC[C@]1(O)C[C@H]2CN(CCc3c([nH]c4ccccc34)[C@@](C(=O)OC)(c3cc4c(cc3OC)N(C=O)[C@H]3[C@@](O)(C(=O)OC)[C@H](OC(C)=O)[C@]5(CC)C=CCN6CC[C@]43[C@@H]65)C2)C1 [vincristine],patients experiencing coasting,[4]; when the chemotherapy is stopped,30%
Amitriptyline/nortriptyline,Efficacy,[1],Low
Omega-3-fatty acid,Efficacy,[2]; [11],Low
same,Safety,[2]; [11],Low
Vitamin E,Efficacy,[2]; [7],Low
same,Safety,[2]; [7],Low
rhuLIF: intervention for prevention of CIPN listed in the ASCO guideline table,Safety,[2],Low
same,Efficacy,[2]; [7],No evidence
